From article PMC6544300, “Mechanism of the efflux transport of demethoxycurcumin-O-glucuronides in HeLa cells stably transfected with UDP-glucuronosyltransferase 1A1” (PLoS ONE, 2019)

Columns and labels:
MRP3 = target: T1, MRP3 (Homo sapiens, UniProt O15438); test: shRNA-mediated MRP3 knock-down, glucuronide excretion in HeLa1A1 cells; format: cell-based; conditions: DMC 4 μM; for decrease of fmet value: MRP3 partial knock-down, Fig 10E; for decrease in efflux excretion clearance / increase in intracellular level: MRP3 silencing; for decrease in efflux excretion clearance: Fig 10C; for increase in intracellular level: Fig 10D
T1 construct: BCRP, MRP1, MRP3, and MRP4 were detected in both wild-type HeLa and HeLa1A1 cells; endogenous in cells; host or cells: HeLa1A1 cells (MRP3-shRNA versus scrambled shRNA)
T1 sequence (O15438 whole entry): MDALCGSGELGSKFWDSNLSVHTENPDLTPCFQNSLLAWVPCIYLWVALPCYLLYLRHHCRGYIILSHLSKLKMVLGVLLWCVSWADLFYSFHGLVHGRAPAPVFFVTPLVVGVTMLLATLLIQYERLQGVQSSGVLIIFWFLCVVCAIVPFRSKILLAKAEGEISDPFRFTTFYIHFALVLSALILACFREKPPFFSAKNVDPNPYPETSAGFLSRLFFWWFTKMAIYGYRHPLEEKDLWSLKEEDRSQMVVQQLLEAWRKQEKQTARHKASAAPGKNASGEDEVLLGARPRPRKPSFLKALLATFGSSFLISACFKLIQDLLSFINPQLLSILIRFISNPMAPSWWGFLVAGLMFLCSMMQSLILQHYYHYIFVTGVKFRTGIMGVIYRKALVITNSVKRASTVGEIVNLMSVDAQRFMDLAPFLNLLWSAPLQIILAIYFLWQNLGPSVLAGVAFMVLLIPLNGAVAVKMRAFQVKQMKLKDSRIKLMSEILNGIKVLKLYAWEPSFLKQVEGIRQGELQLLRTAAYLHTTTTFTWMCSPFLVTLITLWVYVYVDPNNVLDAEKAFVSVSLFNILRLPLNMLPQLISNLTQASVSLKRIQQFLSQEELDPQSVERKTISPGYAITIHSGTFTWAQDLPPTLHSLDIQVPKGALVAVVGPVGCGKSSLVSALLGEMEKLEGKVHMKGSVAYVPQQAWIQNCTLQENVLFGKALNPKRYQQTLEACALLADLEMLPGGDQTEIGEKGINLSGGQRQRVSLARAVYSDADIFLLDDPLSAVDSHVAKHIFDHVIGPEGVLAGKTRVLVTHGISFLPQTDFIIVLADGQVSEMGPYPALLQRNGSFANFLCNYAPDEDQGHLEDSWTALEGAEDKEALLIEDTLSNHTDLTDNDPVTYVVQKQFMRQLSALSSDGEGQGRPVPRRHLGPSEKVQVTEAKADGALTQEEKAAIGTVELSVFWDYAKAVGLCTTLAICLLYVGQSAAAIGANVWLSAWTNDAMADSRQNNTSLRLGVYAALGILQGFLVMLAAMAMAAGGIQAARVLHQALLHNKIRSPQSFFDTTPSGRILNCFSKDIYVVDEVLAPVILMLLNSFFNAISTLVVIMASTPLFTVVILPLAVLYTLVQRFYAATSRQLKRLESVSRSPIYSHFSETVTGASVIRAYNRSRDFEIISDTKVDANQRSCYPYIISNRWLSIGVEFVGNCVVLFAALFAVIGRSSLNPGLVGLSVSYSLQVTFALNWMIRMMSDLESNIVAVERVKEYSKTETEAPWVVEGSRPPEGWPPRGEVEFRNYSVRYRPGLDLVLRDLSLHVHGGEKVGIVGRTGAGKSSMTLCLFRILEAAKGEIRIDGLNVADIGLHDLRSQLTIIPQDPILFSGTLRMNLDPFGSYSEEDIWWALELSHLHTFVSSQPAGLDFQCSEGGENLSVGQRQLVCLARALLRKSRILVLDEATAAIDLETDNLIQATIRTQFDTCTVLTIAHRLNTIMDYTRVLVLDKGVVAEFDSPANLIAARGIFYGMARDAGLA
Procedure: (§1) Prior to the assays, HeLa1A1 cells were washed twice with prewarmed (37°C) Hank’s balanced salt solution (HBSS, pH = 7.4). Subsequently, HeLa1A1 cells were pretreated and incubated with DMC (2, 4 or 8 μM) and dissolved in 2 mL of HBSS. The sampling times were selected to ensure that the plots of the amount excreted versus time remained in the linear range. At each time point (0.5, 1.0, 1.5 and 2.0 h), 200 μL of incubation solutions were collected from each well, and an equal volume of loading media was used to replenish each well. Then, the collected samples were each mixed with 100 μL of ice-cold acetonitrile. The supernatants (8.0 μL) were subjected to an ultra high-performance liquid chromatography (UHPLC) analysis after centrifugation (10 min at 13,800 g).
(§2) Furthermore, the excretion rates of generated glucuronides were calculated using Eq (1). In addition, the fraction metabolized (fmet) value was defined as the fraction of the dose metabolized based on Eq (2). V represents the volume of the incubation medium, C represents the concentration of excreted glucuronides, and t represents the incubation time.
(§3) The shRNA plasmids targeting the efflux transporters BCRP, MRP1, MRP3 and MRP4 were constructed using previously described methods. HeLa1A1 cells were transiently transfected with the corresponding shRNA plasmids. The procedures for the establishment of HeLa1A1-BCRP-shRNA cells, HeLa1A1-MRP1-shRNA cells, HeLa1A1-MRP3-shRNA cells and HeLa1A1-MRP4-shRNA cells are detailed in our previous publication. Moreover, levels of the BCRP, MRP1, MRP3 and MRP4 proteins in these constructed HeLa1A1 cells were determined by western blotting assays, as described previously.

BCRP = target: T2, BCRP (Homo sapiens, UniProt Q9UNQ0); test: shRNA-mediated BCRP knock-down, glucuronide excretion in HeLa1A1 cells; format: cell-based; set-up: BCRP, MRP1, MRP3, and MRP4 were detected in both wild-type HeLa and HeLa1A1 cells; endogenous in cells; host or cells: HeLa1A1 cells; conditions: BCRP silencing, DMC 4 μM; for reduction of efflux excretion rate: Fig 8C; for increase of intracellular level: Fig 8D; for decrease in fmet value: Fig 8E
T2 sequence (Q9UNQ0 1-655): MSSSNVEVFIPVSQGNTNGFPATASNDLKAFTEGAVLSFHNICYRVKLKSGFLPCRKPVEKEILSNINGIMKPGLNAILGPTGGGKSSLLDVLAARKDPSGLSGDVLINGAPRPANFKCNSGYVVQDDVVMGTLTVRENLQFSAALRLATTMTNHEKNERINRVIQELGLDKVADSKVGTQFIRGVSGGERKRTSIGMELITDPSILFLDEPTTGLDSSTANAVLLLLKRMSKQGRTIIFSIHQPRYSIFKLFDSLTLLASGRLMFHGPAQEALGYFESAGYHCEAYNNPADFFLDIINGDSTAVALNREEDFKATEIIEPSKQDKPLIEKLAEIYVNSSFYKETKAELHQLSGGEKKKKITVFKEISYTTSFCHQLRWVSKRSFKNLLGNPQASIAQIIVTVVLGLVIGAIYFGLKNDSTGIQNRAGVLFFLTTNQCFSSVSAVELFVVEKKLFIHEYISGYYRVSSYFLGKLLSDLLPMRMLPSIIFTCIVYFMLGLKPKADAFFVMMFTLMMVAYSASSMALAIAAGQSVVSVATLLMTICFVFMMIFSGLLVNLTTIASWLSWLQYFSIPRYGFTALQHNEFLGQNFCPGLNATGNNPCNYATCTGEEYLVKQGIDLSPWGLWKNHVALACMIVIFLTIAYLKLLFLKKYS
Procedure: as §1, §2, §3

MRP1 = target: T3, MRP1 (Homo sapiens, UniProt P33527); test: shRNA-mediated MRP1 knock-down, glucuronide excretion in HeLa1A1 cells; format: cell-based; conditions: DMC 4 μM; for decrease of efflux excretion rate / decrease of metabolized fraction: MRP1 knock-down; for decrease of efflux excretion rate: Fig 9C; for decrease of metabolized fraction: Fig 9E; for increase in intracellular level: MRP1 silencing, Fig 9D
T3 construct: BCRP, MRP1, MRP3, and MRP4 were detected in both wild-type HeLa and HeLa1A1 cells; endogenous in cells; host or cells: HeLa1A1 cells (MRP1-shRNA versus scrambled shRNA)
T3 sequence (P33527 whole entry): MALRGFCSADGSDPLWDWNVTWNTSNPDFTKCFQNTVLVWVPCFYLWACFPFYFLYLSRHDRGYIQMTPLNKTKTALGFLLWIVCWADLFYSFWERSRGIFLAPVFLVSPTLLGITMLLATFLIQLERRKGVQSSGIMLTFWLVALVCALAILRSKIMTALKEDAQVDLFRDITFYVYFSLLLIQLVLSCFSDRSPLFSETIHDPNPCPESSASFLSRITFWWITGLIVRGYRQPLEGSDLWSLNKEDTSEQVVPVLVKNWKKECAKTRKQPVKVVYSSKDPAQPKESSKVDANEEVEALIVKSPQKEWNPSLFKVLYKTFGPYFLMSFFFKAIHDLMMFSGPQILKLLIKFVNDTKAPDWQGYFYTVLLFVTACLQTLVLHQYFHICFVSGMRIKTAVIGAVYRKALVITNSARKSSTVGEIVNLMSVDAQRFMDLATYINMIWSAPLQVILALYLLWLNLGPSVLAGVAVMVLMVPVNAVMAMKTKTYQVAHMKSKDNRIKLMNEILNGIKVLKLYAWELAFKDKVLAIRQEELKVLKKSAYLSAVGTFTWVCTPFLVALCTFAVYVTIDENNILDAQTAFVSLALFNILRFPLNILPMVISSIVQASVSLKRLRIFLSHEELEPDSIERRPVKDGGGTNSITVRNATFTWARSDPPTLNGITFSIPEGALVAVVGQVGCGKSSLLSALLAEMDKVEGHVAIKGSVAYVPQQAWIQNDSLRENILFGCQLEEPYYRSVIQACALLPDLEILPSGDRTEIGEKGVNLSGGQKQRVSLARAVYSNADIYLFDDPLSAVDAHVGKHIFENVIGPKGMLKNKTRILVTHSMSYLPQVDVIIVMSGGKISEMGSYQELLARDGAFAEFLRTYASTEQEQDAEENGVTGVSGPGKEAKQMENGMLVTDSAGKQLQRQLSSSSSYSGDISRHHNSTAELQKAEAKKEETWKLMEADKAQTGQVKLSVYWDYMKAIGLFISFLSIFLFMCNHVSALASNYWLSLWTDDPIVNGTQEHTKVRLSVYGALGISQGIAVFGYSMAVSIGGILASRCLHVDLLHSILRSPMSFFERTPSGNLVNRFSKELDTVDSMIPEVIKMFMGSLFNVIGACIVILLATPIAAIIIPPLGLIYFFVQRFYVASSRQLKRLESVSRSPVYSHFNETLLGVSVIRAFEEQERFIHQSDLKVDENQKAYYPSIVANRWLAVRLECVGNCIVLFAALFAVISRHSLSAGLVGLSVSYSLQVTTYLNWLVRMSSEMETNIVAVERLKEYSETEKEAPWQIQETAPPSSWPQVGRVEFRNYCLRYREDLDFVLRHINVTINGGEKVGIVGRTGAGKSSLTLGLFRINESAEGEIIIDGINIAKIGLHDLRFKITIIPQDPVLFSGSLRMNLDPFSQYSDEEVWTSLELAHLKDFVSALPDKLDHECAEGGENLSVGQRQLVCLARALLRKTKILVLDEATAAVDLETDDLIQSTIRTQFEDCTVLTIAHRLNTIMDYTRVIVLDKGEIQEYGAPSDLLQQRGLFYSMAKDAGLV
Procedure: as §1, §2, §3

BCRP transporter = tested on: BCRP transporter; set-up: method as in PMID 12477054; conditions: cited from earlier work
UGT1A1 = target: T4, UGT1A1 (Homo sapiens, UniProt P22309); test: Chemical inhibition of DMC-O-glucuronidation by UGT1A1 inhibitors in HeLa1A1 cell lysate; format: biochemical; set-up: expressed in transfected cells; host or cells: HeLa cells stably overexpressing UGT1A1 (HeLa1A1), used as cell lysate; conditions: DMC 4 μM, HeLa1A1 cell lysate 2.3 mg/mL
T4 sequence (P22309 26-533): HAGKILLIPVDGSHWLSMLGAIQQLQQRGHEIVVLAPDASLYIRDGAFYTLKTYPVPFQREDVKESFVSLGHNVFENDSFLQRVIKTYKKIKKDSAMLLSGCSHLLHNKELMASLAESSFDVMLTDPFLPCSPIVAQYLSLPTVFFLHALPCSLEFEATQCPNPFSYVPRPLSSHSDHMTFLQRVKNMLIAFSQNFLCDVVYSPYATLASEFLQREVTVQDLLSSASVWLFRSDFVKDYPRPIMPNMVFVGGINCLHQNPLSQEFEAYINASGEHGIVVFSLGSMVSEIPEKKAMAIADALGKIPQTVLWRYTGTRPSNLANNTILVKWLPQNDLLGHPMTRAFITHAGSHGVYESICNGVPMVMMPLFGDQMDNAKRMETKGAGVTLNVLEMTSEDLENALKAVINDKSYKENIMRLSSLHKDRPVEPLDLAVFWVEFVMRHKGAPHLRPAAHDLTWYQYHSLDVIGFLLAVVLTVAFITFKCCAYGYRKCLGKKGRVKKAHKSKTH
Procedure: The glucuronidation assay was performed as previously described. Briefly, alamethicin (22 μg/mL), D-saccharic-1,4-lactone (4.4 mM), MgCl2 (0.88 mM), UGT1A1 (1.0 mg/mL) or HeLa1A1 cell lysates (2.3 mg/mL) and DMC (0.5 to 40 μM) were mixed in a 50 mM Tris buffer (pH 7.4). After a preincubation at 37°C for 5 min, UDPGA (3.5 mM) was added to the incubation system, and the mixture was further incubated. After 30 min, the reactions were terminated by the addition of ice-cold acetonitrile (200 μL). The mixed samples were centrifuged at 13,800 x g for 10 min, and the supernatant was analyzed using UHPLC.
Analyses of chemical inhibition and activity correlations were performed as two additional independent assays to determine the roles of the UGT1A1 enzyme. In these studies, nilotinib (10 μM), glycyrrhetinic acid (20 μM) and protopanaxatriol (500 μM) were used as UGT1A1 inhibitors to investigate the metabolic activities of DMC (4 μM). The incubation conditions were the same as those used for the glucuronidation activity assays.

decrease of fmet value (MRP3) [%]	decrease in efflux excretion clearance (MRP3) [%]	increase in intracellular level (MRP3) [%]	reduction of efflux excretion rate (BCRP) [%]	increase of intracellular level (BCRP) [%]	decrease in fmet value (BCRP) [%]	decrease of efflux excretion rate (MRP1) [%]	decrease of metabolized fraction (MRP1) [%]	increase in intracellular level (MRP1) [%]	SMILES	further results
16.2	19.7	31.5	29.9	40.9	20.1	20.8	16.5	33.1	COc1cc(/C=C/C(=O)CC(=O)/C=C/c2ccc(O)cc2)ccc1O[C@@H]1O[C@H](C(=O)O)[C@@H](O)[C@H](O)[C@H]1O [G1]	
27.9	26.4	32.1	33.0	51.6	24.5	36.9	29.8	36.1	COc1cc(/C=C/C(=O)CC(=O)/C=C/c2ccc(O[C@@H]3O[C@H](C(=O)O)[C@@H](O)[C@H](O)[C@H]3O)cc2)ccc1O [G2]	

Second part, the molecule before the results:

SMILES	decrease of fmet value (MRP3) [%]	decrease in efflux excretion clearance (MRP3) [%]	increase in intracellular level (MRP3) [%]	reduction of efflux excretion rate (BCRP) [%]	increase of intracellular level (BCRP) [%]	decrease in fmet value (BCRP) [%]	decrease of efflux excretion rate (MRP1) [%]	decrease of metabolized fraction (MRP1) [%]	increase in intracellular level (MRP1) [%]	further results
COc1ccc2c3c([nH]c2c1)[C@H](CC(C)C)N1C(=O)[C@H](CCC(=O)OC(C)(C)C)NC(=O)[C@@H]1C3 [Ko143]										IC50 (BCRP transporter): 23 nM
Cc1cn(-c2cc(NC(=O)c3ccc(C)c(Nc4nccc(-c5cccnc5)n4)c3)cc(C(F)(F)F)c2)cn1 [Nilotinib, nilotinib]										formation of G1 and G2 (UGT1A1; inhibitor 10 μM): significantly inhibited
CC1(C)[C@@H](O)CC[C@]2(C)[C@H]3C(=O)C=C4[C@@H]5C[C@@](C)(C(=O)O)CC[C@]5(C)CC[C@@]4(C)[C@]3(C)CC[C@@H]12 [glycyrrhetinic acid]										formation of G1 and G2 (UGT1A1; inhibitor 20 μM): significantly inhibited
CC(C)=CCC[C@](C)(O)[C@H]1CC[C@]2(C)[C@@H]1[C@H](O)C[C@@H]1[C@@]3(C)CC[C@H](O)C(C)(C)[C@@H]3[C@@H](O)C[C@]12C [protopanaxatriol]										formation of G1 and G2 (UGT1A1; inhibitor 500 μM): significantly inhibited
